The target in assay [1] is human GABAA α2β2γ1 receptor (Homo sapiens (Human), UniProt P47869+Q8N1C3). Briefly: Radioligand binding assay, [3H]RO7239181 competition, γ1-containing GABAA subtypes. The note with it: for γ2/γ1 Selectivity Ratio: Ki α1β3γ2 (nM)/Ki α2β2γ1 (nM); for LogSel: Log[Ki α1β3γ2 (nM)/Ki α2β2γ1 (nM)]. The method, then: The affinity of compounds at GABAA γ1 subunit-containing receptors was measured by competition for [^3H]RO7239181 (67.3 Ci/mmol; Roche) binding to membranes from HEK293F cells (ThermoFisher R79007) expressing human (transiently transfected) receptors of composition α5β2γ1, α2β2γ1, α1β2γ1.
Harvested pellets from HEK293F cells expressing the different GABAA receptor subtypes were resuspended in Mannitol Buffer pH 7.2-7.4 (Mannitol 0.29M, Triethylamine 10 mM, Acetic acid 10 mM, EDTA 1 mM plus protease inhibitors (20 tablets Complete, Roche Diagnostics Cat. No. 05 056 489 001 per liter)), washed two times and then resuspended at 1:10 to 1:15 dilution in the same buffer. Cell disruption was performed by stirring the suspension in a Parr vessel #4637 at 435 psi for 15 minutes, and then the suspensions were centrifuged at 1000×g for 15 minutes at 4° C. (Beckman Avanti J-HC; rotor JS)-4.2). The supernatant (S1) was transferred in a 21 Schott flask and the pellet (P1) was resuspended with Mannitol Buffer up to 175 ml. The resuspended pellet was transferred into a 250 ml Corning centrifugal beaker and centrifuged at 1500×g for 10 minutes at 4° C. (Beckman Avanti J-HC; rotor JS)-4.2). The supernatant (S1) was then transferred in the 21 Schott flask and the pellet was discarded. The supernatants (S1) were centrifuged in 500 ml Beckman polypropylene centrifugal beaker at 15,000×g for 30 minutes at 4° C. (Beckman Avanti J-20 XP; rotor JLA-10.500). The pellet (P2) was resuspended with Mannitol Buffer 1:1 and frozen at −80° C. The supernatant (S2) was centrifuged in 100 ml Beckman polypropylene centrifugal tubes at 48000×g for 50 minutes at […] (Beckman Avanti J-20 XP; rotor JA-18). The supernatant (S3) was discarded and the pellet (P3) was resuspended with 1:1 Mannitol Buffer. The P2 and P3 protein concentration was determined with the BIORAD Standard assay method with bovine serum albumin as standard and measured on the NANO-Drop 1000. The membrane suspension was aliquots (500 μl per tube) and stored at −80° C. until required.
Membrane homogenates were resuspended and polytronised (Polytron PT1200E Kinematica AG) in Potassium Phosphate 10 mM, KCl 100 mM binding buffer at pH 7.4 to a final assay concentration determined with a previous experiment.
Assays were incubated to equilibrium for 1 hour at 4° C. and then, membranes were filtered onto unifilter (96-well white microplate with bonded GF/C filters preincubated 20-50 minutes in 0.3% Polyethylenimine) with a Filtermate 196 harvester (Packard BioScience) and washed 4 times with cold Potassium Phosphate 10 mM pH 7.4, KCl 100 mM binding buffer. After drying, filter-retained radioactivity was detected by liquid scintillation counting. K, values were calculated using Excel-Fit (Microsoft) and are the means of two determinations.

For assay [2], the target named is h-GABA-A α2β2γ1 (Homo sapiens (Human), UniProt P47869+Q8N1C3). As to the kind of experiment: Two-electrode voltage clamp electrophysiology in Xenopus oocytes expressing GABAA receptors. It counts as cell-based. The note with it: for potentiation of the GABA-induced current in α2βγ1 GABAA receptor subtype expressing oocytes: reference PAMs, GABA EC20. As to the method:
Xenopus laevis oocytes at maturation stages V-VI were used for the expression of cloned mRNA encoding GABAA receptor subunits. Oocytes ready for RNA micro-injection were bought from Ecocyte, Castrop-Rauxel, Germany and stored in modified Barth's medium (composition in mM: NaCl 88, KCl 1, NaHCO3 2.4, HEPES 10, MgSO4 0.82, CaNO3 0.33, CaCl2 0.33, pH=7.5) at 20° C. until the experiment.
Oocytes were plated in 96-well plates for microinjection using the Roboinject automated instrument (MultiChannelSystems, Reutlingen, Germany). Approximately 50 nL of an aqueous solution containing the RNA transcripts for the subunits of the desired GABAA receptor subtype was injected into each oocyte. […] Oocytes were kept in modified Barth's medium (composition in mM: NaCl 88, KCl 1, NaHCO3 […], HEPES 10, MgSO4 0.82, CaNO3 0.33, CaCl2 0.33, pH=7.5) at 20° C. until the experiment.
Electrophysiological experiments were performed using the Roboocyte instrument (MultiChannelSystems, Reutlingen, Germany) on days 3 to 5 after the micro-injection of mRNA. During the experiment the oocytes were constantly superfused by a solution containing (in mM) NaCl 90, KCl 1, HEPES 5, MgCl2 1 CaCl2 1 (pH 7.4). Oocytes were impaled by two glass microelectrodes (resistance: 0.5-0.8 MΩ) which were filled with a solution containing KCl 1M+K-acetate 1.5 M and voltage-clamped to −80 mV. The recordings were performed at room temperature using the Roboocyte two-electrode voltage clamp system (Multichannelsystem). After an initial equilibration period of 1.5 min GABA was added for 1.5 min at a concentration evoking approximately 20% of a maximal current response (EC20). After another rest interval of 2.5 min GABA was again added evoking a response of similar amplitude and shape. […] Current traces were recorded at a digitization rate of 10 Hz during and shortly before and after the GABA application.
Each compound and concentration was tested on at least 3 oocytes. Different oocytes were used for different compound concentrations.
For the analysis, the digitized current traces of the first and second GABA response were superimposed and, if necessary, rescaled to equal maximal amplitudes. The ratio between the two responses during the time interval of test compound application was calculated point by point. The extremum of the resulting “ratio trace” was taken as the efficacy (“Fold increase”) of the compound expressed as “% modulation of GABA EC20” (100*(Fold increase−1)).
(In general: In two-electrode clamp one electrode senses voltage and the other passes current.)

Assay [3] addresses human GABAA α1β3γ2 receptor (Homo sapiens (Human), UniProt P14867+P18507). As to the kind of experiment: Radioligand binding assay, [3H]Flumazenil competition, γ2-containing GABAA subtypes. As to the method:
The affinity of compounds at GABAA γ2 subunit-containing receptors was measured by competition for [^3H]Flumazenil (81.1 Ci/mmol; Roche) binding to HEK293F cells expressing human (transiently transfected) receptors of composition α1β3γ2.
Harvested pellets from HEK293F cells expressing the different GABAA γ2 receptor subtypes were resuspended in Mannitol Buffer pH 7.2-7.4 and processed as described above for the cells expressing the GABAA γ1 subunit-containing receptors.
Assays were incubated to equilibrium for 1 hour at 4° C. and harvested onto GF/C uni-filters (Packard) by filtration using a Packard harvester and washing with ice-cold wash buffer (50 mM Tris; pH 7.5). After drying, filter-retained radioactivity was detected by liquid scintillation counting. Ki values were calculated using Exel-Fit (Microsoft) and are the means of two determinations.

Take `Cc1nnc2n1-c1ccc(Cl)cc1C(c1ccccc1)=NC2` [Alprazolam, reference compound]: in assay [1], the “γ2/γ1 Selectivity Ratio” value stood at 0.0050 and the LogSel was −2.3.
The matching figures for `Clc1ccc2c(c1)C(c1ccccc1)=NCc1nncn1-2` [Estazolam, reference compound]: 0.0089 and −2.0.
As to `CCc1nnc2n1-c1ccc(C(F)(F)F)c(Cl)c1C(c1c(F)cccc1F)=N[C@H]2C` [Example 108, (4S)-7-chloro-6-(2,6-difluorophenyl)-1-ethyl-4-methyl-8-(trifluoromethyl)-4H-[1,2,4]triazolo[4,3-a][1,4]benzodiazepine], the “γ2/γ1 Selectivity Ratio” value in assay [1] is 50.4. Also, in assay [2] (% modulation of GABA EC20 = 100*(Fold increase−1), compound at 30-fold Ki), the “Efficacy (GABA)%” value amounted to 94%.
On to `CN1C(=O)CN=C(c2ccccc2F)c2cc([N+](=O)[O-])ccc21` [Flunitrazepam, reference compound], for which, in assay [2], the “potentiation of the GABA-induced current in α2βγ1 GABAA receptor subtype expressing oocytes” value (“potentiation of the GABA-induced current” below) is recorded as roughly 60%.
As to `Cc1ncc2n1-c1ccc(Cl)cc1C(c1ccccc1F)=NC2` [Midazolam, reference compound], in assay [1], the “γ2/γ1 Selectivity Ratio” value amounted to 0.0068 and the LogSel is −2.2. Besides, the “potentiation of the GABA-induced current” value in assay [2] is roughly 60%.
For `Cc1nnc2n1-c1ccc(Br)cc1C(c1c(F)cccc1F)=NC2` [RE-A, 8-bromo-6-(2,6-difluorophenyl)-1-methyl-4H-[1,2,4]triazolo[4,3-a][1,4]benzodiazepine, reference compound], in assay [1], the “γ2/γ1 Selectivity Ratio” value came out at 0.18 and the LogSel was −0.74.
The corresponding values for `Cc1nnc2n1-c1ccc(C(F)(F)F)cc1C(c1c(F)cccc1F)=NC2` [RE-B, 6-(2,6-difluorophenyl)-1-methyl-8-(trifluoromethyl)-4H-[1,2,4]triazolo[4,3-a][1,4]benzodiazepine, reference compound] are 0.23 and −0.64.
The matching figures for `Cc1nnc2n1-c1ccccc1C(c1c(F)cccc1F)=NC2` [RE-C, 6-(2,6-difluorophenyl)-1-methyl-4H-[1,2,4]triazolo[4,3-a][1,4]benzodiazepine, reference compound]: 0.0092 and −2.0.
A word on the Ki: it is the equilibrium dissociation constant of an inhibitor or competing ligand from its target. High values mean a looser hold on the target, low ones a stronger hold on the target. `Cc1nnc2n1-c1cccc(Cl)c1C(c1c(F)cccc1F)=N[C@H]2C` [RE-D, (4S)-7-chloro-6-(2,6-difluorophenyl)-1,4-dimethyl-4H-[1,2,4]triazolo[4,3-a][1,4]benzodiazepine, reference compound]: in assay [1], the Ki came to 454 nM, the “γ2/γ1 Selectivity Ratio” value was found to be 2.215 and the LogSel is 0.35. This compound had a Ki in assay [3] of 1010 nM.
In the case of `Cc1nnc2n1-c1ccc(Cl)cc1C(c1ccccc1Cl)=NC2` [Triazolam, reference compound], the LogSel in assay [1] is listed as −1.5. Also, the “potentiation of the GABA-induced current” value in assay [2] is listed as roughly 60%.

Source of the values: patent publication US20240002393A1, “SUBSTITUTED BENZO[f][l ,2,4JTRIAZOL0[4,3-a][l ,4J[…] GABA A GAMMA! POSITIVE ALLOSTERIC MODULATORS” (Hoffmann-La Roche Inc., priority 2020, published 2024).
